The values below come from US12054494B2, “Compound with anticancer activity” (KYOWA KIRIN CO., LTD., priority 2018, dated 2024).

The test system of the experiment is SU-DHL-4 cells. In words: Inhibitory effect on cell viability (Cell Counting Kit-8). Format: cell-based. To be noted: Homo sapiens, 72 hours culture with test compound, concentration showing 90% inhibition rate of cell viability. How it is done: Inhibitiory Effect on Cell Viability
SU-DHL-4 cells (Code No. ACC 495, Deutsche Sammlung von Mikroorganismen and Zellkulturen GmbH) were cultured at 37° C. using a carbon dioxide incubator (95% air, 5% CO2) in RPMI1640 medium (Code No. 11875-093, Thermo Fisher Scientific) in which inactivated fetal bovine serum (FBS: Code No. 10099-148, Thermo Fisher Scientific) in an amount to give a final concentration of 10 vol % and penicillin/streptomycin solution (PS: Code No. 15140-122, Thermo Fisher Scientific) in an amount to give a final concentration of 1 vol % were added. The cells were passaged twice a week at a volume of 20-40 mL so as to maintain a cell concentration of 1×10^6 cells/mL or less.
The cultured SU-DHL-4 cells were seeded at 2000 cells/well in a transparent 384-well plate (Code No. 781182, Greiner bio-one). After seeding, the cells were precultured at 37° C. in a carbon dioxide gas incubator for 18 to 25 hours. Next, 1, 0.1 or 0.01 mmol/L DMSO solution of the test compound was prepared and a 9-step dilution series were prepared so that the concentration will be 200 times the final concentration in the RPMI1640 medium containing the above FBS and PS, and 1/200 volume of the dilution series were added to each well. At this time, the final concentration of DMSO was adjusted to be 0.1 vol %. After adding the test compound, the cells were cultured at 37° C. in a carbon dioxide gas incubator for 72 hours. Next, 0.020 mL of Cell Counting Kit-8 (Code No. CK04, DOJINDO) solution diluted 2-fold or 4-fold with phosphate buffered saline (PBS) was added to each well. Color reaction was carried out in a carbon dioxide gas incubator at 37° C. for 2 to 3 hours, and the absorbance at a wavelength of 450 nm was measured using SpectraMax 340PC (Molecular Devices). The inhibition rate of cell viability was calculated by the following formula, and the concentration of the test compound (IC90 value) showing a 90% inhibition rate of cell viability was calculated. Inhibition rate of cell viability (%)=100−(A−B)/(C−B)×100 • A: Absorbance of a well containing test compound • B: Absorbance of a well without addition of cells • C: Absorbance of a well without addition of test compound
On the technique in general: Tetrazolium assays rely on reduction of a dye to a coloured formazan, in cell work by metabolically active cells.

In general, IC90 refers to the concentration needed for an effect of 90%. In turn, `CCC(=O)N1c2ccccc2[C@H](NCCOCCOCc2cn(-c3ccc(N[C@@H]4C[C@H](C)N(C(=O)CC)c5ccccc54)cc3)nn2)C[C@@H]1C` (relative stereo) [Compound 12e, 1-((2S*,4R*)-2-Methyl-4-((2-(2-((1-(4-(((2S,4R)-2-methyl-1-propionyl-1,2,3,4-tetrahydroquinolin-4-yl)amino)phenyl)-1H-1,2,3-triazol-4-yl)methoxy)ethoxy)ethyl)amino)-3,4-dihydroquinolin-1(2H)-yl)propan-1-one] yielded an IC90 of 73.7 nM. The result for `CCC(=O)N1c2ccccc2[C@H](NCCCCCCCCC(=O)Nc2ccc(N[C@@H]3C[C@H](C)N(C(=O)CC)c4ccccc43)cc2)C[C@@H]1C` (relative stereo) [Compound 12g, 9-(((2S*,4R*)-2-Methyl-1-propionyl-1,2,3,4-tetrahydroquinolin-4-yl)amino)-N-(4-(((2S,4R)-2-methyl-1-propionyl-1,2,3,4-tetrahydroquinolin-4-yl)amino)phenyl)nonanamide] reads 31.1 nM; that for `CCC(=O)N1c2ccccc2[C@H](NCCCCCCCC(=O)Nc2ccc(N[C@@H]3C[C@H](C)N(C(=O)CC)c4ccccc43)cc2)C[C@@H]1C` (relative stereo) [Compound 12h, 8-(((2S*,4R*)-2-Methyl-1-propionyl-1,2,3,4-tetrahydroquinolin-4-yl)amino)-N-(4-(((2S,4R)-2-methyl-1-propionyl-1,2,3,4-tetrahydroquinolin-4-yl)amino)phenyl)octanamide], 3.92 nM; that for `CCC(=O)N1c2ccccc2[C@H](NCCCC(=O)NCCn2cc(-c3ccc(N[C@@H]4C[C@H](C)N(C(=O)CC)c5ccccc54)cc3)cn2)C[C@@H]1C` (relative stereo) [Compound 12i, 4-(((2S*,4R*)-2-Methyl-1-propionyl-1,2,3,4-tetrahydroquinolin-4-yl)amino)-N-(2-(4-(4-(((2S,4R)-2-methyl-1-propionyl-1,2,3,4-tetrahydroquinolin-4-yl)amino)phenyl)-1H-pyrazol-1-yl)ethyl)butanamide], 3.68 nM. For `CCC(=O)N1c2ccccc2[C@H](Nc2ccc(NC(=O)CCNC(=O)c3ccc(C4=N[C@@H](CC(=O)OC(C)(C)C)c5nnc(C)n5-c5sc(C)c(C)c54)cc3)cc2)C[C@@H]1C` (relative stereo) [Compound 13i, tert-Butyl 2-((S)-2,3,9-trimethyl-4-(4-((3-((4-(((2S*,4R*)-2-methyl-1-propionyl-1,2,3,4-tetrahydroquinolin-4-yl)amino)phenyl)amino)-3-oxopropyl)carbamoyl)phenyl)-6H-thieno[3,2-f][1,2,4]triazolo[4,3-a][1,4]diazepin-6-yl)acetate], the concentration for an effect of 90% (IC90) amounted to 3.37 nM.

`CCC(=O)N1c2ccccc2[C@H](Nc2ccc(NC(=O)CCCC(=O)Nc3ccc(C4=NCc5nnc(C)n5-c5sc(C)c(C)c54)cc3)cc2)C[C@@H]1C` (relative stereo) [Compound 14t, N^1-(4-(((2S*,4R*)-2-Methyl-1-propionyl-1,2,3,4-tetrahydroquinolin-4-yl)amino)phenyl)-N^5-(4-(2,3,9-trimethyl-6H-thieno[3,2-f][1,2,4]triazolo[4,3-a][1,4]diazepin-4-yl)phenyl)glutaramide] yielded an IC90 of 1.17 nM. Take `CCC(=O)N1c2ccccc2[C@H](Nc2ccc(NC(=O)CNC(=O)C=C3CCC(N[C@@H]4C[C@H](C)N(C(=O)CC)c5ccccc54)CC3)cc2)C[C@@H]1C` (relative stereo) [Compound 15j, 2-(4-(((2S*,4R*)-2-Methyl-1-propionyl-1,2,3,4-tetrahydroquinolin-4-yl)amino)cyclohexylidene)-N-(2-((4-(((2S,4R)-2-methyl-1-propionyl-1,2,3,4-tetrahydroquinolin-4-yl)amino)phenyl)amino)-2-oxoethyl)acetamide]: it took 0.52 nM to reach the 90% level (IC90).

In the case of `CCC(=O)N1c2ccccc2[C@H](Nc2ccc(NC(=O)CNC(=O)C(F)=C3CCC(N[C@@H]4C[C@H](C)N(C(=O)CC)c5ccccc54)CC3)cc2)C[C@@H]1C` (relative stereo) [Compound 15k, 2-Fluoro-2-(4-(((2S*,4R*)-2-methyl-1-propionyl-1,2,3,4-tetrahydroquinolin-4-yl)amino)cyclohexylidene)-N-(2-((4-(((2S,4R)-2-methyl-1-propionyl-1,2,3,4-tetrahydroquinolin-4-yl)amino)phenyl)amino)-2-oxoethyl)acetamide], the IC90 amounted to 0.32 nM. Under `Cc1sc2c(c1C)C(c1ccc(C(=O)NCCCNC(=O)c3ccc(C4=N[C@@H](CC(=O)OC(C)(C)C)c5nnc(C)n5-c5sc(C)c(C)c54)cc3)cc1)=N[C@@H](CC(=O)OC(C)(C)C)c1nnc(C)n1-2` [Compound 1b, Di-tert-butyl 2,2′-[(6S,6′S)-({[propane-1,3-diylbis(azanediyl)]bis(carbonyl)}bis(4,1-phenylene))bis(2,3,9-trimethyl-6H-thieno[3,2-f][1,2,4]triazolo[4,3-a][1,4]diazepine-4,6-diyl)]diacetate] stands 1.78 nM; under `CCC(=O)N1c2ccccc2[C@H](Nc2ccc(C(=O)N3CC4CC3CN4C(=O)c3ccc(N[C@@H]4C[C@H](C)N(C(=O)CC)c5ccccc54)cc3)cc2)C[C@@H]1C` [Compound 1k, 1,1′-{(2S,2′S,4R,4′R)-{[(2,5-Diazabicyclo[2.2.1]heptane-2,5-dicarbonyl)bis(4,1-phenylene)]bis(azanediyl)}bis[2-methyl-3,4-dihydroquinoline-4,1(2H)-diyl]}bis(propan-1-one)], 0.55 nM; under `CCC(=O)N1c2ccccc2[C@H](Nc2ccc(C(=O)NCC(=O)CNC(=O)c3ccc(N[C@@H]4C[C@H](C)N(C(=O)CC)c5ccccc54)cc3)cc2)C[C@@H]1C` [Compound 1l, N,N′-(2-Oxopropane-1,3-diyl)bis(4-{[(2S,4R)-2-methyl-1-propionyl-1,2,3,4-tetrahydroquinolin-4-yl]amino}benzamide)], 0.04 nM. Under `CCC(=O)N1c2ccccc2[C@H](Nc2ccc(C(=O)NC3CCN(C(=O)c4ccc(C5=NCc6nnc(C)n6-c6sc(C)c(C)c65)cc4)CC3)cc2)C[C@@H]1C` [Compound 1m, 4-{[(2S,4R)-2-Methyl-1-propionyl-1,2,3,4-tetrahydroquinolin-4-yl]amino}-N-{1-[4-(2,3,9-trimethyl-6H-thieno[3,2-f][1,2,4]triazolo[4,3-a][1,4]diazepin-4-yl)benzoyl]piperidin-4-yl}benzamide] stands 0.53 nM; under `CCC(=O)N1c2ccccc2[C@H](Nc2ccc(C(=O)N3CC(NC(=O)c4ccc(C5=N[C@@H](CC(=O)OC(C)(C)C)c6nnc(C)n6-c6sc(C)c(C)c65)cc4)C3)cc2)C[C@@H]1C` [Compound 1n, tert-Butyl 2-[(S)-2,3,9-trimethyl-4-(4-{[1-(4-{[(2S,4R)-2-methyl-1-propionyl-1,2,3,4-tetrahydroquinolin-4-yl]amino}benzoyl)azetidin-3-yl]carbamoyl}phenyl)-6H-thieno[3,2-f][1,2,4]triazolo[4,3-a][1,4]diazepin-6-yl]acetate], 0.49 nM. Under `CCC(=O)N1c2ccccc2[C@H](Nc2ccc(C(=O)NCc3cn(-c4ccc(N[C@@H]5C[C@H](C)N(C(=O)CC)c6ccccc65)cc4)nn3)cc2)C[C@@H]1C` [Compound 3a, 4-{[(2S,4R)-2-Methyl-1-propionyl-1,2,3,4-tetrahydroquinolin-4-yl]amino}-N-{[1-(4-{[(2S,4R)-2-methyl-1-propionyl-1,2,3,4-tetrahydroquinolin-4-yl]amino}phenyl)-1H-1,2,3-triazol-4-yl]methyl}benzamide] stands 0.04 nM. `CCC(=O)N1c2ccccc2[C@H](Nc2ccc(C(=O)NCc3nnc(-c4ccc(N[C@@H]5C[C@H](C)N(C(=O)CC)c6ccccc65)cc4)o3)cc2)C[C@@H]1C` [Compound 3c, 4-{[(2S,4R)-2-Methyl-1-propionyl-1,2,3,4-tetrahydroquinolin-4-yl]amino}-N-{[5-(4-{[(2S,4R)-2-methyl-1-propionyl-1,2,3,4-tetrahydroquinolin-4-yl]amino}phenyl)-1,3,4-oxadiazol-2-yl]methyl}benzamide] showed an IC90 of 0.11 nM. The result for `CCC(=O)N1c2ccccc2[C@H](Nc2ccc(C(=O)NCc3noc(-c4ccc(N[C@@H]5C[C@H](C)N(C(=O)CC)c6ccccc65)cc4)n3)cc2)C[C@@H]1C` [Compound 3d, 4-{[(2S,4R)-2-Methyl-1-propionyl-1,2,3,4-tetrahydroquinolin-4-yl]amino}-N-{[5-(4-{[(2S,4R)-2-methyl-1-propionyl-1,2,3,4-tetrahydroquinolin-4-yl]amino}phenyl)-1,2,4-oxadiazol-3-yl]methyl}benzamide] reads 0.11 nM.
